These results are taken from US5034528A, “Compositions for the control of hyperlipidemia” (North Carolina Central University, priority 1988, dated 1991).

Series [1] has as its system serum cholesterol and triglyceride levels. In words: Serum testing of normal rats: serum cholesterol and triglyceride levels, oral. Type of series: in vivo. The note with it: Sprague-Dawley male rats, 20 mg/kg/day orally. An excerpt: Test solution of Compounds A, F, J, M, N and O were suspended in an aqueous solution of 1% CMC, homogenized and administered orally to six Sprague-Dawley male rats, which each weighted approximately 350 grams. Administration of the compounds was by an intubation needle. The rats were each fed with 20 milligrams of Compounds A, F, J, M, N and O per kilogram of body weight per day for 14 days. Similarly, six Sprague-Dawley male rats of approximately the same weight (that used for testing F weighed approximately 160 grams) were fed similar volumes of the same aqueous 1% CMC solution without the active agents, also orally, administered by intubation needle. In addition, as a control, a similar group of six male Sprague-Dawley rats were untreated.
On Days 7 and 14, blood was obtained from each of the rats of the three groups by tail vein bleeding. The blood obtained was separated by centrifugation for three minutes. Serum cholesterol and triglyceride levels were determined in accordance with the procedure of Example 6.

For series [2], the system named is serum cholesterol and serum triglyceride levels. In words: Testing of hyperlipidemic mice: serum cholesterol and serum triglyceride levels on atherogenic diet. Type of series: in vivo. As to conditions: hyperlipidemic CF1 male mice, 20 mg/kg/d ip, Day 12; diet-hyperlipidemic = 100. The method, then:
A group of six CF1 male mice (about 25 g) were placed on a commercial diet (U.S. Biochemical Corporation BAsal Atherogenic Test Diet) which produced a "hyperlipidemic" state. That is, the average serum cholesterol level in the group of treated mice was raised from 122 to 375 mg percent and triglyceride levels were raised from 137 to 367 mg/dL.

The subject of series [3] is cholesterol content of serum lipoprotein (VLDL, LDL, HDL). Briefly: Cholesterol content of serum lipoprotein of rats treated orally for 14 days. As to conditions: Sprague-Dawley rats, orally 14 days, 20 mg/kg/day; control 1% CMC = 100. In kind it is in vivo. The method, then:
The cholesterol content of serum lipoprotein of
Sprague-Dawley Rats treated orally for 14 days at 20 mg/kg/day

A further series is described as follows: in vivo. As to conditions: mouse, ip.
The subject of series [4] is serum cholesterol and serum triglyceride levels. In words: Testing of normal mice: serum cholesterol and serum triglyceride levels, compounds 20 mg/kg/d ip for 16 days. In kind it is in vivo. As to conditions: CF1 male mice; for response vs control in vivo at 20 mg/kg/day: Mus musculus. The method, then:
The following compounds were tested for their hypolipidemic activity in CF1 mice.
Compounds A-V as defined above, were suspended in an aqueous 1 percent carboxymethylcellulose (CMC) solution and homogenized. Each of the so prepared compounds were administered to a group of six CF1 male mice, each weighing approximately 25 grams, intra-peritioneally for 16 days. Each of these compounds were provided in a dosage of 20 mg/kg/d ip. On Days 9 and 16 blood was obtained by tail vein bleeding. The blood serum so obtained was separated by centrifugation for three minutes. Serum cholesterol levels were determined by a modification of the Liebermann-Burchard reaction (Ness, Clin. Chim. Acta., Vol. 10, 229 [1964]). Serum triglyceride levels were determined on Day 16 by use of the Fisher, Hycel Triglyceride Test Kit.
In addition to the above-described treated mice, an untreated control group of six mice were similarly tested on Days 9 and 16 to determine their serum cholesterol and trigylceride blood levels. Based on the results obtained for the untreated control group, the percent control, based on serum cholesterol and serum triglyceride levels of the treated mice compared to the untreated mice, was obtained. Table 1 reports this percent control, including standard deviation, indicating the level of confidence of these numbers.

A further series concerns mice. In words: LD50 in mice as single injection IP.
Where [5] appears, read: 216 h, Day 9, ± standard deviation, read-out: Serum Cholesterol, Day 9 (percent control).
[6] abbreviates: 384 h, Day 16, ± standard deviation, read-out: Serum Cholesterol, Day 16 (percent control).
Where [7] appears, read: 384 h, Day 16, ± standard deviation, read-out: Serum Triglyceride, Day 16 (percent control).

Where two headings read alike, the source gives them in different places.

For the molecule `CC(=O)n1[nH]c(=O)n(-c2ccccc2)c1=O` [A, 4-phenyl-1-methylcarbonyl-1,2,4-triazolidine-3,5-dione], in series [1], the “Serum Cholesterol, Day 7, Percent of Control” value was 89% of Control; the “Serum Triglyceride, Day 7, Percent of Control” value is 62% of Control; the “Serum Cholesterol, Day 14, Percent of Control” value is recorded as 69% of Control; the “Serum Triglyceride, Day 14, Percent of Control” value is given as 48% of Control. Besides, in series [2], the “Serum Cholesterol, Percent of Control, hyperlipidemic mice” value (“Serum Cholesterol, Percent of Control” below) is recorded as 41% of Control and the “Serum Triglyceride, Percent of Control, hyperlipidemic mice” value (“Serum Triglyceride, Percent of Control” for short) is recorded as 40% of Control. Moreover, in series [3], the “HDL cholesterol, Percent of Control” value is on record as 441% of Control; the “LDL cholesterol, Percent of Control” value is given as 74% of Control; the “VLDL cholesterol, Percent of Control” value is 44% of Control.
With `CCOC(=O)c1nc(=O)n(-c2ccccc2)c(=O)[nH]1` [Compound N, 3-phenyl-6-ethoxycarbonyl-1,3,5-triazine-2,4(1 --H,3 --H)-dione], in series [1], the “Serum Cholesterol, Day 7, Percent of Control” value is reported as 71% of Control; the “Serum Triglyceride, Day 7, Percent of Control” value is 61% of Control; the “Serum Cholesterol, Day 14, Percent of Control” value is listed as 67% of Control; the “Serum Triglyceride, Day 14, Percent of Control” value is given as 53% of Control. In addition, in series [2], the “Serum Cholesterol, Percent of Control” value is 50% of Control and the “Serum Triglyceride, Percent of Control” value is on record as 46% of Control. Besides, in series [3], the “HDL cholesterol, Percent of Control” value is 409% of Control and the “LDL cholesterol, Percent of Control” value is listed as 87% of Control. Moreover, in the series “in vivo”, the LD50 was over 500 mg/kg.
`COc1ccc(-n2c(=O)[nH][nH]c2=O)cc1` [F, 4-(4-methoxyphenyl)-1,2,4-triazolidine-3,5-dione]: in series [1], the “Serum Cholesterol, Day 7, Percent of Control” value is 77% of Control; the “Serum Triglyceride, Day 7, Percent of Control” value is reported as 87% of Control; the “Serum Cholesterol, Day 14, Percent of Control” value is reported as 66% of Control; the “Serum Triglyceride, Day 14, Percent of Control” value is 81% of Control. In series [3], the “HDL cholesterol, Percent of Control” value was 141% of Control; the “LDL cholesterol, Percent of Control” value is 78% of Control; the “VLDL cholesterol, Percent of Control” value is recorded as 59% of Control.
With `O=C(Nc1ccccc1)n1[nH]c(=O)n(-c2ccccc2)c1=O` [I, 4-phenyl-1-N-phenylcarbamoyl-1,2,4-triazolidine-3,5-dione], the values for the response vs control in vivo at 20 mg/kg/day in series [4] (setting [5]), in series [4] (setting [6]) and in series [4] (setting [7]) were 79 ± 7%, 74 ± 6% and 68 ± 6%, respectively.
In the case of `O=c1[nH][nH]c(=O)n1-c1ccc(Cl)cc1` [J, 4-(4-chlorophenyl)-1,2,4-triazolidine-3,5-dione], in series [1], the “Serum Cholesterol, Day 7, Percent of Control” value is recorded as 59% of Control; the “Serum Triglyceride, Day 7, Percent of Control” value is 61% of Control; the “Serum Cholesterol, Day 14, Percent of Control” value is 60% of Control; the “Serum Triglyceride, Day 14, Percent of Control” value was 52% of Control. In series [2], the “Serum Cholesterol, Percent of Control” value is given as 46% of Control and the “Serum Triglyceride, Percent of Control” value is listed as 49% of Control. In addition, in series [3], the “HDL cholesterol, Percent of Control” value is listed as 194% of Control; the “LDL cholesterol, Percent of Control” value was 43% of Control; the “VLDL cholesterol, Percent of Control” value is 98% of Control.
As to `CCOC(=O)C1n2c(=O)n(-c3ccc(Cl)cc3)c(=O)n21` [L, 3-(4-chlorophenyl)-6-ethoxyacarbonyl-1,3,5-triazabicyclo[3.1.0]hexane-2,4-dione], the “Serum Cholesterol, Day 9 (percent control)” value in series [4] (Day 9, ± standard deviation) was found to be 74 ± 3 percent control. Moreover, in series [4] (Day 16, ± standard deviation), the “Serum Cholesterol, Day 16 (percent control)” value worked out at 56 ± 5 percent control and the “Serum Triglyceride, Day 16 (percent control)” value was found to be 66 ± 7 percent control.
For `CCOC(=O)C1n2c(=O)n(-c3ccccc3)c(=O)n21` [M, 3-phenyl-6-ethoxycarbonyl-1,3,5-triazabicyclo[3.1.0]hexane-2,4-dione], in series [1], the “Serum Cholesterol, Day 7, Percent of Control” value is given as 70% of Control; the “Serum Triglyceride, Day 7, Percent of Control” value is 36% of Control; the “Serum Cholesterol, Day 14, Percent of Control” value was 36% of Control; the “Serum Triglyceride, Day 14, Percent of Control” value is listed as 54% of Control. Besides, in series [2], the “Serum Cholesterol, Percent of Control” value was 46% of Control and the “Serum Triglyceride, Percent of Control” value is listed as 54% of Control. Moreover, in series [4] (Day 9, ± standard deviation), the “Serum Cholesterol, Day 9 (percent control)” value is given as 62 ± 6 percent control. In addition, in series [4] (Day 16, ± standard deviation), the “Serum Cholesterol, Day 16 (percent control)” value stood at 57 ± 5 percent control and the “Serum Triglyceride, Day 16 (percent control)” value was 59 ± 6 percent control. In series [3], the “HDL cholesterol, Percent of Control” value was 340% of Control; the “LDL cholesterol, Percent of Control” value is given as 67% of Control; the “VLDL cholesterol, Percent of Control” value is reported as 71% of Control. For the same molecule, the “LD50 value in mice as single injection IP” value in the series on mice is over 500 mg/kg.
On to `CCOC(=O)c1nc(=O)n(-c2ccc(Cl)cc2)c(=O)[nH]1` [O, 3-(4-chlorophenyl)-6-ethoxycarbonyl-1,3,5-triazine-2,4(1H,3 --H)-dione], for which, in series [1], the “Serum Cholesterol, Day 7, Percent of Control” value was 84% of Control; the “Serum Triglyceride, Day 7, Percent of Control” value was 82% of Control; the “Serum Cholesterol, Day 14, Percent of Control” value is 60% of Control; the “Serum Triglyceride, Day 14, Percent of Control” value is listed as 77% of Control. For the same molecule, in series [3], the “HDL cholesterol, Percent of Control” value is 113% of Control; the “LDL cholesterol, Percent of Control” value was 78% of Control; the “VLDL cholesterol, Percent of Control” value is recorded as 27% of Control.
For `CCCCCC(=O)n1c(=O)n(CCCC)c(=O)n1C(=O)CCCCC` [T, 4-(4-n-butyl)-1,2 dipentylcarbonyl-1,2,4-triazolidine-3,5-dione], the response vs control in vivo at 20 mg/kg/day in series [4] (setting [5]) came to 69%; in series [4] (setting [6]), 49%; in series [4] (setting [7]) it was 53%.

By LD50 is commonly meant the dose expected to kill half of the subjects tested.
